Source: the OPERA property sets (Mansouri et al. 2018)

Settings: for log10 BCF / log10 biotransformation half-life (days): fish

## O=CC12CC=CCC1C1CC=CCC1O2 (configuration not stated)
  boiling point: 307 °C
  melting point: -80 °C

## CCCC(C)(C)C(C)=O
  boiling point: 149 °C

## NC(N)=O
  log10 Koc (L/kg): 0.15
  log10 vapour pressure (mmHg): -4.92
  ready biodegradability: readily biodegradable

## CO[C@H]1C=CO[C@@]2(C)Oc3c(C)c(O)c4c(O)c(cc(O)c4c3C2=O)NC(=O)C(C)=CC=C[C@H](C)[C@H](O)[C@@H](C)[C@@H](O)[C@@H](C)[C@H](OC(C)=O)[C@@H]1C
  melting point: 300 °C

## C=C(Cl)CC
  boiling point: 58.5 °C

## NCCNCc1ccccc1
  ready biodegradability: not readily biodegradable

## CCCCCCC(C)Cl (configuration not stated)
  boiling point: 172 °C
  log10 vapour pressure (mmHg): 0.136

## C1=Cc2ccccc2C1
  boiling point: 182 °C
  log10 biodegradation half-life (days): 0.477
  log10 vapour pressure (mmHg): 0.0414
  melting point: -1.8 °C

## O=C(OCCO)c1ccccc1
  melting point: 45 °C

## O=C(Cl)C(F)(F)C(F)(F)C(F)(F)F
  boiling point: 38.5 °C

## CCCCCCc1ccc(-c2ccc(C#N)cc2)cc1
  ready biodegradability: not readily biodegradable
  log10 BCF: 3.52
  log10 biotransformation half-life (days): 0.85

## COc1cccc(CC(=O)O)c1
  melting point: 72 °C

## CC(=O)CC(=O)OC(C)C
  boiling point: 186 °C
  melting point: -27.3 °C

## NC(=O)CN1CCCC1=O
  melting point: 152 °C

## Oc1c(F)c(F)c(F)c(F)c1F
  boiling point: 146 °C
  log10 vapour pressure (mmHg): 0.464
  melting point: 32.8 °C

## CCCCCCCCCCN
  boiling point: 220 °C
  log10 vapour pressure (mmHg): -1
  melting point: 17 °C
  ready biodegradability: readily biodegradable

## ClCC(Cl)C(Cl)=C(Cl)C(Cl)CCl (configuration not stated)
  melting point: 58.5 °C

## COc1c2c(cc3c1OCO3)CCN(C)C2
  melting point: 56 °C

## O=C(Cl)c1ccc(Cl)c(Cl)c1
  boiling point: 242 °C
  melting point: 25 °C

## Cc1cc(C)c2cc(C)ccc2c1
  melting point: 12 °C

## Cc1ccc(N)c(S(=O)(=O)O)c1
  ready biodegradability: not readily biodegradable
  log10 BCF: 0.6

## C/C=C(C)/C=C/C=C(C)C
  boiling point: 188 °C

## CC(C)CC(C)C
  boiling point: 80.4 °C
  log10 biodegradation half-life (days): 1.68
  log10 vapour pressure (mmHg): 1.9
  melting point: -120 °C

## Cc1ccccc1C=Cc1ccccc1C
  melting point: 83 °C

## O=S(=O)(Cc1ccccc1)c1ccccc1
  melting point: 146 °C

## O=C(O)CNC(=O)c1ccccc1
  melting point: 192 °C
  ready biodegradability: readily biodegradable

## CC(=O)c1ccc(C)nc1
  melting point: 17.6 °C

## Clc1cc2c(oc3c(Cl)cccc32)c(Cl)c1Cl
  log10 vapour pressure (mmHg): -7.4
  melting point: 190 °C

## Clc1ccc(Cn2c(CN3CCCC3)nc3ccccc32)cc1
  melting point: 167 °C

## Clc1cc(Cl)c(Cl)c(-c2cc(Cl)c(Cl)cc2Cl)c1
  log10 Henry constant (atm·m³/mol): -4.6
  log10 biotransformation half-life (days): 2.4

## O=C(O)c1cc(O)nc(O)n1
  melting point: 346 °C

## CC(=O)C1CCCCC1
  boiling point: 180 °C
  log10 Henry constant (atm·m³/mol): -4.47

## CCC(C)CCC(C)C (configuration not stated)
  boiling point: 136 °C
  log10 biodegradation half-life (days): 0.778

## COc1ccc(C(=O)Cl)cc1
  boiling point: 262 °C
  melting point: 24.5 °C

## CC(=O)c1ccc(-c2ccccc2)cc1
  boiling point: 326 °C
  log10 Koc (L/kg): 3.22
  melting point: 121 °C

## S=C(S)N1CCNCC1
  melting point: 228 °C

## C=CCOCCO
  boiling point: 158 °C

## O=C(O)c1cc(S(=O)(=O)O)ccc1O
  melting point: 120 °C

## CCOC(=O)Nc1cccc(OC(=O)Nc2ccccc2)c1
  log10 Koc (L/kg): 3.18
  log10 vapour pressure (mmHg): -8.52
  melting point: 120 °C

## Clc1cc(Cl)cc(Cl)c1
  boiling point: 208 °C
  log10 Henry constant (atm·m³/mol): -2.72
  log10 Koa: 4.85
  log10 Koc (L/kg): 2.85
  log10 vapour pressure (mmHg): -0.62
  melting point: 63.5 °C
  ready biodegradability: not readily biodegradable
  log10 BCF: 2.97
  log10 biotransformation half-life (days): 1.19

## CC(=O)CO
  boiling point: 146 °C
  melting point: -17 °C
  ready biodegradability: readily biodegradable

## Cc1ccccc1NCCO
  boiling point: 286 °C

## Cc1cc([N+](=O)[O-])ccc1O
  melting point: 96 °C

## NCCOP(=O)(O)O
  melting point: 242 °C

## COc1ccc(CCCO)cc1
  melting point: 26 °C

## OCCCCCCCCCCl
  melting point: 28 °C

## CCCCc1cc(C)ccc1O
  boiling point: 228 °C
  melting point: 19 °C

## CCCC(C=O)CCC
  boiling point: 160 °C

## O=C1c2ccccc2C(=O)c2c(Br)cccc21
  melting point: 186 °C

## CCC/C=C/CCC
  boiling point: 126 °C
  log10 vapour pressure (mmHg): 1.25
  melting point: -104 °C

## CCCc1cccs1
  boiling point: 158 °C

## Oc1ccncc1
  melting point: 150 °C
  ready biodegradability: readily biodegradable

## CCCC(C)C1(CC)C(=O)N=C(O)NC1=O (configuration not stated)
  melting point: 130 °C

## CC(C)(C)N(NC(=O)c1ccccc1)C(=O)c1ccccc1I
  melting point: 188 °C

## Cl.NCCc1c[nH]c2ccccc12
  melting point: 255 °C

## C=CCOC(=O)/C=C\C(=O)OCC=C
  log10 vapour pressure (mmHg): -2.17

## Nc1nc(N)nc(NC2CC2)n1
  log10 Koc (L/kg): 2.3
  log10 vapour pressure (mmHg): -8.47
  melting point: 225 °C

## ClCC#CCCl
  boiling point: 166 °C

## N#Cc1nccnc1C#N
  melting point: 132 °C

## O=C(CS)Nc1ccc2ccccc2c1
  melting point: 112 °C

## CNCCNC
  boiling point: 120 °C

## C=CCC1(C(C)CCC)C(=O)NC(=O)NC1=O (configuration not stated)
  melting point: 100 °C

## O=C(O)/C=C/c1c[nH]cn1
  melting point: 225 °C

## CCOc1ccc(C=O)cc1OC
  melting point: 64.5 °C

## O=[N+]([O-])c1cc(C(F)(F)F)cc([N+](=O)[O-])c1Cl
  melting point: 57 °C

## CCCCOC(=O)Nc1ccccc1
  log10 Koc (L/kg): 2.26

## CCCC/C=C/CO
  boiling point: 178 °C

## CCC1OCC(COc2ccc(Oc3ccccc3)cc2)O1 (configuration not stated)
  log10 vapour pressure (mmHg): -6.08

## C#C[C@]1(O)C=C[C@H]2[C@@H]3CCC4=CC(=O)CC[C@@H]4[C@H]3CC[C@@]21CC
  melting point: 198 °C

## O=C(O)CCCCCCC[C@H](O)[C@H](O)CCCCCCO
  melting point: 100 °C

## CCCCCCCCCCOC(=O)CCCCC(=O)OCCCCCCCC
  melting point: -50 °C

## CCOC(=O)C1CCCCC1
  boiling point: 196 °C

## OCCC1CCCCC1
  boiling point: 208 °C
  log10 vapour pressure (mmHg): -0.78
  melting point: -20 °C

## ONc1ccccc1
  melting point: 83.5 °C

## N#CC(O)c1ccccc1 (configuration not stated)
  melting point: -10 °C

## C=C(C)[C@H](C)O
  boiling point: 114 °C

## CC(C)[C@@H](C)/C=C/[C@@H](C)[C@H]1CC[C@H]2C3=CC=C4C[C@@H](O)CC[C@]4(C)C3=CC[C@]12C
  melting point: 146 °C

## CN1C(C)(C)CCCC1(C)C
  boiling point: 147 °C

## C[Si](C)(C)O[Si](C)(C)O[Si](C)(C)O[Si](C)(C)O[Si](C)(C)O[Si](C)(C)C
  boiling point: 246 °C
  log10 vapour pressure (mmHg): -1.53
  melting point: -59 °C

## Clc1cccnc1
  boiling point: 148 °C

## CC(C)C(C(C)C)C(C)C
  boiling point: 157 °C
  melting point: -81.7 °C

## C=C1C(=O)O[C@@H]2C[C@@H](C)[C@@H]3C=CC(=O)[C@@]3(C)[C@@H](O)[C@H]12
  melting point: 168 °C

## O=c1[nH]c(=O)n(C2CCCO2)cc1F (configuration not stated)
  melting point: 172 °C

## Clc1ccc(Cl)c(-c2cc(Cl)ccc2Cl)c1
  log10 Henry constant (atm·m³/mol): -3.7
  log10 Koa: 8.47
  log10 Koc (L/kg): 5.12
  ready biodegradability: not readily biodegradable
  log10 BCF: 4.26

## CCOP(=S)(OCC)Oc1ccc([N+](=O)[O-])cc1
  boiling point: 375 °C
  log10 Henry constant (atm·m³/mol): -6.53
  log10 Koc (L/kg): 3.2
  log10 vapour pressure (mmHg): -5.18
  melting point: 6.1 °C
  log10 BCF: 1.99
  log10 biotransformation half-life (days): -0.41

## CC(=O)[C@@H]1CC[C@H]2[C@@H]3CCC4=CC(=O)CC[C@]4(C)[C@H]3C(=O)C[C@]12C
  melting point: 172 °C

## O=Cc1ccccc1C(=O)O
  melting point: 98 °C

## O=C(NCC1CCCCN1)c1cc(OCC(F)(F)F)ccc1OCC(F)(F)F (configuration not stated)
  melting point: 146 °C

## COC(F)(F)C(Cl)Cl
  boiling point: 105 °C
  log10 Henry constant (atm·m³/mol): -2.43
  melting point: -35 °C
